Results on 26 compounds are retold here after patent US20240116897A1, “BENZOTHIAZOLE AND BENZIMIDAZOLE DERIVATIVES, PHARMACEUTICALLY ACCEPTABLE SALT THEREOF, PREPARATION METHOD THEREFOR, AND PHARMACEUTICAL COMPOSITION COMPRISING SAME AS ACTIVE INGREDIENT” (KOREA RESEARCH INSTITUTE OF CHEMICAL TECHNOLOGY, priority 2021, published 2024).

A word on the inhibition: it is the percentage by which the read-out fell short of the control.

The target in the assay is T1, SIRT7 protein (Homo sapiens, UniProt Q9NRC8).
T1 construct: purchased SignalChem S41-30H
T1 sequence (Q9NRC8 1-400): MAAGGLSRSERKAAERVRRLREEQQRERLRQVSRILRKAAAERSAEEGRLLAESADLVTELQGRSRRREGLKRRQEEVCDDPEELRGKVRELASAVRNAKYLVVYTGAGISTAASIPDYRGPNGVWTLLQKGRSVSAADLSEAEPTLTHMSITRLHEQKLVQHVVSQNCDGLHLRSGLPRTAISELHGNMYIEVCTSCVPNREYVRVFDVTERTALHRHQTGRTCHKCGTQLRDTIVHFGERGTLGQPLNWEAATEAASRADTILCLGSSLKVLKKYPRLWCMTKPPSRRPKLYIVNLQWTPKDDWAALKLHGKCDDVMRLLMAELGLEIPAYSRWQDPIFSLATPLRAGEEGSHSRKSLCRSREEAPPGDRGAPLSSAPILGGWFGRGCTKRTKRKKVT
The experiment in a line: SIRT Glo assay, inhibitory activity against Sirt7. The format is biochemical. Conditions: 10 μM compound. The procedure:
Promega's Cat. No. 6450 SIRT Glo assay kit was used, and as the target SIRT7 protein, No. S41-30H protein of SignalChem's Cat. was used. Prepare the compound by diluting it in SIRT Glo buffer in advance to a concentration twice as thick as the final concentration. For the positive control group of white 384 well plate (Greiner Bioone, white, small volume, Cat. No. 874075), and for compound group, dilute sirt7 protein in SIRT Glo buffer and dispense by 5 μL to contain 20 ng per well. In the background control group, 10 μL of SIRT Glo buffer is dispensed.
After adding 5 μL of SIRT Glo buffer to the positive control group, and 5 μL of the diluted compound to the compound group, react for 30 minutes. After making the substrate provided in the SIRT Glo assay, adding 10 μL each, and reacting for 1 hour, the luciferase activity is measured with a microplate reader (Molecular Device, spectramax i3).
Subtract the luciferase level of the background control group in all wells. The % inhibition of the compound was used to obtain the compound's rate of inhibitory activity against sirt7 in the following:
% inhibition=100−(compound group/positive control group)×100.

SMILES strings stand for the structures.

In the case of `O=C(Nc1nc2ccccc2s1)c1ccc(CN2CCN(S(=O)(=O)c3ccc(C(F)(F)F)cc3)CC2)cc1` [Compound 1-36, N-(benzo[d]thiazol-2-yl)-4-((4-((4-(trifluoromethyl)phenyl)sulfonyl)piperazin-1-yl)methyl)benzamide], testing at 10 µM gave an inhibition of 15%.
In the case of `O=C(Nc1nc2ccccc2s1)c1ccc(CN2CCN(C(=O)Nc3ccccc3)CC2)cc1` [Compound 1-38, 4-(4-(benzo[d]thiazol-2-ylcarbamoyl)benzyl)-N-phenylpiperazine-1-carboxamide] it was 98%; in that of `O=C(Nc1nc2ccccc2s1)c1ccc(CN2CCN(C(=O)Nc3ccc(C(F)(F)F)cc3)CC2)cc1` [Compound 1-39, 4-(4-(benzo[d]thiazol-2-ylcarbamoyl)benzyl)-N-(4-(trifluoromethyl)phenyl)piperazine-1-carboxamide], 87%; in that of `CC(C)NC(=O)N1CCN(Cc2ccc(C(=O)Nc3nc4ccccc4s3)cc2)CC1` [Compound 1-40, 4-(4-(benzo[d]thiazol-2-ylcarbamoyl)benzyl)-N-isopropylpiperazine-1-carboxamide], 87%.
In the case of `O=C(Nc1nc2ccccc2s1)c1ccc(CN2CCN(C(=O)NC34CC5CC(CC(C5)C3)C4)CC2)cc1` [Compound 1-41] it was 66%; in that of `COc1ccc(NC(=O)N2CCN(Cc3ccc(C(=O)Nc4nc5ccccc5s4)cc3)CC2)cc1` [Compound 1-42, 4-(4-(benzo[d]thiazol-2-ylcarbamoyl)benzyl)-N-(4-methoxyphenyl)piperazine-1-carboxamide], 89%; in that of `O=C(Nc1nc2ccccc2s1)c1ccc(CN2CCN(C(=O)Nc3ccccc3C(F)(F)F)CC2)cc1` [Compound 1-43, 4-(4-(benzo[d]thiazol-2-ylcarbamoyl)benzyl)-N-(2-(trifluoromethyl)phenyl)piperazine-1-carboxamide], 79%.
`O=C(Nc1nc2ccccc2s1)c1ccc(CN2CCN(C(=O)Nc3ccc(F)cc3)CC2)cc1` [Compound 1-44, 4-(4-(benzo[d]thiazol-2-ylcarbamoyl)benzyl)-N-(4-fluorophenyl)piperazine-1-carboxamide] gave an inhibition at 10 µM of 95%.
In the case of `O=C(Nc1nc2ccccc2s1)c1ccc(CN2CCN(C(=O)Nc3ccccc3F)CC2)cc1` [Compound 1-45, 4-(4-(benzo[d]thiazol-2-ylcarbamoyl)benzyl)-N-(2-fluorophenyl)piperazine-1-carboxamide] it was 96%; in that of `O=C(Nc1nc2ccccc2s1)c1ccc(CN2CCN(C(=O)Nc3ccc4c(c3)CCC4)CC2)cc1` [Compound 1-46, 4-(4-(benzo[d]thiazol-2-ylcarbamoyl)benzyl)-N-(2,3-dihydro-1H-inden-5-yl)piperazine-1-carboxamide], 84%.
The result for `Cc1cc(C)cc(NC(=O)N2CCN(Cc3ccc(C(=O)Nc4nc5ccccc5s4)cc3)CC2)c1` [Compound 1-47, 4-(4-(benzo[d]thiazol-2-ylcarbamoyl)benzyl)-N-(3,5-dimethyphenyl)piperazine-1-carboxamide] reads 88%.
In the case of `CCCCOC(=O)CNC(=O)N1CCN(Cc2ccc(C(=O)Nc3nc4ccccc4s3)cc2)CC1` [Compound 1-48, butyl-(4-(4-(benzo[d]thiazol-2-ylcarbamoyl)benzyl)piperazine-1-carbonyl)glycinate] it was 54%.
With `O=C(Nc1nc2ccccc2s1)c1ccc(CN2CCN(C(=O)Nc3ccc(Cl)cc3)CC2)cc1` [Compound 1-49, 4-(4-(benzo[d]thiazol-2-ylcarbamoyl)benzyl)-N-(4-chlorophenyl)piperazine-1-carboxamide], 10 µM produced 89% inhibition.
The result for `CCc1ccccc1NC(=O)N1CCN(Cc2ccc(C(=O)Nc3nc4ccccc4s3)cc2)CC1` [Compound 1-50, 4-(4-(benzo[d]thiazol-2-ylcarbamoyl)benzyl)-N-(2-ethylphenyl)piperazine-1-carboxamide] reads 61%; that for `Cc1ccc(NC(=O)N2CCN(Cc3ccc(C(=O)Nc4nc5ccccc5s4)cc3)CC2)cc1` [Compound 1-51, 4-(4-(benzo[d]thiazol-2-ylcarbamoyl)benzyl)-N-(p-tolyl)piperazine-1-carboxamide], 90%; that for `CCc1ccc(NC(=O)N2CCN(Cc3ccc(C(=O)Nc4nc5ccccc5s4)cc3)CC2)cc1` [Compound 1-52, 4-(4-(benzo[d]thiazol-2-ylcarbamoyl)benzyl)-N-(4-ethylphenyl)piperazine-1-carboxamide], 85%.
Compound `O=C(Nc1nc2ccccc2s1)c1ccc(CN2CCN(C(=O)NC3CCCCC3)CC2)cc1` [Compound 1-53, 4-(4-(benzo[d]thiazol-2-ylcarbamoyl)benzyl)-N-cyclohexylpiperazine-1-carboxamide] showed an inhibition at 10 µM of 97%.
Regarding `O=C(Nc1nc2ccccc2s1)c1ccc(CN2CCN(C(=O)NCCl)CC2)cc1` [Compound 1-54, 4-(4-(benzo[d]thiazol-2-ylcarbamoyl)benzyl)-N-(chloromethyl)piperazine-1-carboxamide], the inhibition at 10 µM is 100%.
In the case of `CCCNC(=O)N1CCN(Cc2ccc(C(=O)Nc3nc4ccccc4s3)cc2)CC1` [Compound 1-55, 4-(4-(benzo[d]thiazol-2-ylcarbamoyl)benzyl)-N-propylpiperazine-1-carboxamide] it was 100%; in that of `CCOc1ccccc1NC(=O)N1CCN(Cc2ccc(C(=O)Nc3nc4ccccc4s3)cc2)CC1` [Compound 1-56, 4-(4-(benzo[d]thiazol-2-ylcarbamoyl)benzyl)-N-(2-ethoxyphenyl)piperazine-1-carboxamide], 87%.
Take `CC(C)(C)CC(C)(C)NC(=O)N1CCN(Cc2ccc(C(=O)Nc3nc4ccccc4s3)cc2)CC1` [Compound 1-57, 4-(4-(benzo[d]thiazol-2-ylcarbamoyl)benzyl)-N-(2,4,4-trimethylpentan-2-yl)piperazine-1-carboxamide]: the inhibition at 10 µM is 12%.
In the case of `O=C(Nc1nc2ccccc2s1)c1ccc(CN2CCN(C(=O)Nc3ccccc3Br)CC2)cc1` [Compound 1-58, 4-(4-(benzo[d]thiazol-2-ylcarbamoyl)benzyl)-N-(2-bromophenyl)piperazine-1-carboxamide] it was 87%; in that of `CCC(=O)N1CCN(Cc2ccc(C(=O)Nc3nc4ccccc4s3)cc2)CC1` [Compound 1-59, N-(benzo[d]thiazol-2-yl)-4-((4-propionylpiperazin-1-yl)methyl)benzamide], 5%.
In the case of `O=C(Nc1nc2ccccc2s1)c1ccc(CN2CCN(C(=O)c3ccccc3)CC2)cc1` [Compound 1-60, N-(benzo[d]thiazol-2-yl)-4-((4-benzoylpiperazin-1-yl)methyl)benzamide] it was 7%.
The result for `CCN1CCN(Cc2ccc(C(=O)Nc3nc4ccccc4s3)cc2)CC1` [Compound 1-61, N-(benzo[d]thiazol-2-yl)-4-((4-ethylpiperazin-1-yl)methyl)benzamide] reads 3%; that for `O=C(Nc1nc2ccccc2s1)c1ccc(CN2CCN(Cc3ccccc3)CC2)cc1` [Compound 1-62, N-(benzo[d]thiazol-2-yl)-4-((4-benzylpiperazin-1-yl)methyl)benzamide], 7%.
